Source: patent US6914045B2, “Glycopeptide antibiotics” (Wyeth Holdings Corporation, priority 2001, dated 2005)
Converted amounts (≈) assume the structure as drawn.

Key:
Assay in all cases: in vitro antibacterial evaluation, MIC by broth dilution
Assay type in all cases: cell-based
Enterococcus sp. = details: broth dilution, 18 hours at 35° C.; for MIC Enterococcus faecalis (ATCC 29212): strain ATCC 29212; for MIC Enterococcus faecalis (GC 2242): strain GC 2242; for MIC Enterococcus faecium (GC 2243): strain GC 2243; for MIC Enterococcus faecalis (GC 2691): strain GC 2691; for MIC Enterococcus faecalis (GC 3059): strain GC 3059; for MIC Enterococcus faecalis (GC 4552): strain GC 4552; for MIC Enterococcus faecalis (GC 4553): strain GC 4553; for MIC Enterococcus faecalis (GC 4554): strain GC 4554; for MIC Enterococcus faecium (GC 4556): strain GC 4556; for MIC Enterococcus faecium (GC 4557): strain GC 4557; for MIC Enterococcus avium (GC 4558): strain GC 4558; for MIC Enterococcus faecalis (GC 6189): strain GC 6189
Outline: (§1)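 MIC, the lowest antibiotic concentration preventing growth, was read across 64-0.06 μg/mL with 5×10^5 CFU/mL inoculum. Method followed NCCLS M7-A2 broth dilution using Mueller-Hinton II; Gram-positive strains covered recent methicillin-, penicillin- and/or vancomycin-resistant clinical isolates.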

Escherichia coli = test system: Escherichia coli
Outline: as §1

Staphylococcus sp. = details: broth dilution, 18 hours at 35° C.; for MIC Staphylococcus aureus (GC 1131): strain GC 1131
Outline: as §1

Streptococcus sp. = details: broth dilution, 18 hours at 35° C.; for MIC Streptococcus pneumoniae (ATCC 6301): strain ATCC 6301; for MIC Streptococcus pneumoniae (GC 1894): strain GC 1894; for MIC Streptococcus pyogenes (GC 4563): strain GC 4563; for MIC Streptococcus agalactiae (GC 4564): strain GC 4564; for MIC Streptococcus pneumoniae (GC 4565): strain GC 4565
Outline: as §1

## CSc1ccc(C2OCC3OC(OC4C(CO)OC(Oc5ccc(CC6NC(=O)C(C(C)c7ccccc7)NC(=O)CNC(=O)C(CO)NC(=O)C(C(O)C7CNC(=N)N7C7OC(CO)C(O)C(O)C7O)NC(=O)C(C(O)C7CNC(=N)N7)NC6=O)cc5)C(O)C4O)C(O)C(O)C3O2)cc1[N+](=O)[O-] (stereo not shown) [Example 168]
Enterococcus sp.; inoculum 5×10^5 CFU/mL
  MIC Enterococcus faecalis (ATCC 29212): 2 mg/L (≈ 1.36 µM)
  MIC Enterococcus faecalis (GC 2242): 2 mg/L (≈ 1.36 µM)
  MIC Enterococcus faecium (GC 2243): 2 mg/L (≈ 1.36 µM)
  MIC Enterococcus faecalis (GC 2691): 2 mg/L (≈ 1.36 µM)
  MIC Enterococcus faecalis (GC 3059): 2 mg/L (≈ 1.36 µM)
  MIC Enterococcus faecalis (GC 4552): 2 mg/L (≈ 1.36 µM)
  MIC Enterococcus faecalis (GC 4553): 2 mg/L (≈ 1.36 µM)
  MIC Enterococcus faecalis (GC 4554): 2 mg/L (≈ 1.36 µM)
  MIC Enterococcus faecium (GC 4556): 2 mg/L (≈ 1.36 µM)
  MIC Enterococcus faecium (GC 4557): 1 mg/L (≈ 0.678 µM)
  MIC Enterococcus avium (GC 4558): 2 mg/L (≈ 1.36 µM)
  MIC Enterococcus faecalis (GC 6189): 2 mg/L (≈ 1.36 µM)
Enterococcus sp.
  MIC Enterococcus faecalis (ATCC 29212): 2 mg/L (≈ 1.36 µM)
  MIC Enterococcus faecalis (GC 2242): 2 mg/L (≈ 1.36 µM)
  MIC Enterococcus faecium (GC 2243): 2 mg/L (≈ 1.36 µM)
  MIC Enterococcus faecalis (GC 2691): 2 mg/L (≈ 1.36 µM)
  MIC Enterococcus faecalis (GC 3059): 2 mg/L (≈ 1.36 µM)
  MIC Enterococcus faecalis (GC 4552): 2 mg/L (≈ 1.36 µM)
  MIC Enterococcus faecalis (GC 4553): 2 mg/L (≈ 1.36 µM)
  MIC Enterococcus faecalis (GC 4554): 2 mg/L (≈ 1.36 µM)
  MIC Enterococcus faecium (GC 4556): 2 mg/L (≈ 1.36 µM)
  MIC Enterococcus faecium (GC 4557): 1 mg/L (≈ 0.678 µM)
  MIC Enterococcus avium (GC 4558): 2 mg/L (≈ 1.36 µM)
  MIC Enterococcus faecalis (GC 6189): 2 mg/L (≈ 1.36 µM)
Escherichia coli; strain ATCC 25922, 18 hours at 35° C.
  MIC Escherichia coli (ATCC 25922): 64 mg/L (≈ 43.4 µM)
Escherichia coli; strain GC 4559, 18 hours at 35° C.
  MIC Escherichia coli (GC 4559): 16 mg/L (≈ 10.9 µM)
Escherichia coli; strain GC 4560, 18 hours at 35° C.
  MIC Escherichia coli (GC 4560): 0.5 mg/L (≈ 0.339 µM)
Staphylococcus sp.; inoculum 5×10^5 CFU/mL
  MIC Staphylococcus aureus (GC 1131): 1 mg/L (≈ 0.678 µM)
Staphylococcus sp.; strain ATCC 29213
  MIC Staphylococcus aureus (ATCC 29213): 1 mg/L (≈ 0.678 µM)
Staphylococcus sp.
  MIC Staphylococcus aureus (GC 1131): 1 mg/L (≈ 0.678 µM)
Staphylococcus sp.; strain GC 3051
  MIC Staphylococcus aureus (GC 3051): 1 mg/L (≈ 0.678 µM)
Staphylococcus sp.; strain GC 3053
  MIC Staphylococcus aureus (GC 3053): 1 mg/L (≈ 0.678 µM)
Staphylococcus sp.; strain GC 4541
  MIC Staphylococcus aureus (GC 4541): 1 mg/L (≈ 0.678 µM)
Staphylococcus sp.; strain GC 4542
  MIC Staphylococcus aureus (GC 4542): 1 mg/L (≈ 0.678 µM)
Staphylococcus sp.; strain GC 4543
  MIC Staphylococcus aureus-SMITH (GC 4543): 1 mg/L (≈ 0.678 µM)
Staphylococcus sp.; strain GC 4544
  MIC Staphylococcus aureus (GC 4544): 2 mg/L (≈ 1.36 µM)
Staphylococcus sp.; strain GC 4545
  MIC Staphylococcus aureus (GC 4545): 1 mg/L (≈ 0.678 µM)
Staphylococcus sp.; strain GC 4546
  MIC Staphylococcus haemolyticus (GC 4546): 0.5 mg/L (≈ 0.339 µM)
Staphylococcus sp.; strain GC 4547
  MIC Coagulase Negative Staphylococcus (GC 4547): 2 mg/L (≈ 1.36 µM)
Staphylococcus sp.; strain GC 4548
  MIC Coagulase Negative Staphylococcus (GC 4548): 0.5 mg/L (≈ 0.339 µM)
Staphylococcus sp.; strain GC 4549
  MIC Coagulase Negative Staphylococcus (GC 4549): 0.5 mg/L (≈ 0.339 µM)
Staphylococcus sp.; strain GC 4551
  MIC Coagulase Negative Staphylococcus (GC 4551): 1 mg/L (≈ 0.678 µM)
Streptococcus sp.; inoculum 5×10^5 CFU/mL
  MIC Streptococcus pneumoniae (ATCC 6301): <0.12 mg/L
  MIC Streptococcus pneumoniae (GC 1894): <0.12 mg/L
  MIC Streptococcus pyogenes (GC 4563): 0.5 mg/L (≈ 0.339 µM)
  MIC Streptococcus agalactiae (GC 4564): <0.12 mg/L
  MIC Streptococcus pneumoniae (GC 4565): <0.12 mg/L
Streptococcus sp.
  MIC Streptococcus pneumoniae (ATCC 6301): <0.12 mg/L
  MIC Streptococcus pneumoniae (GC 1894): <0.12 mg/L
  MIC Streptococcus pyogenes (GC 4563): 0.5 mg/L (≈ 0.339 µM)
  MIC Streptococcus agalactiae (GC 4564): <0.12 mg/L
  MIC Streptococcus pneumoniae (GC 4565): <0.12 mg/L
